Values of other authors in patent US20140073698A1 (Aventis Pharma S.A., priority 2011, published 2014).

Conditions: @pH=1; simulation input

For `CC(C(=O)O)c1cccc(C(=O)c2ccccc2)c1` (stereo not shown) [Ketoprofen, 2-(3-benzoylphenyl)propionic acid], the “Reference Log D” value is listed as 3.16.
